Values of other authors, collected in EP2893919B1, “Formulation of aprepitant with enhanced solubility” (SANOFI, priority 2014, dated 2015).

Assays:
[1] = pH range 2 to 10

## C[C@@H](O[C@H]1OCCN(Cc2n[nH]c(=O)[nH]2)[C@H]1c1ccc(F)cc1)c1cc(C(F)(F)F)cc(C(F)(F)F)c1 [Aprepitant, 5-([(2R,3S)-2-((R)-1-[3,5-bis(trifluoromethyl)phenyl]ethoxy)-3-(4-fluorophenyl)morpholino]methyl)-1H-1,2,4-triazol-3(2H)-one]
[1]
  solubility in water: < 10 µg/mL
Caco-2
  Caco-2 permeability: 7.85 ×10⁻⁶ cm/s
